# From patent US20250144099A1, “INK4 TUMOR SUPPRESSOR PROTEINS MEDIATE RESISTANCE TO CDK4/6 KINASE INHIBITORS” (MEMORIAL SLOAN-KETTERING CANCER CENTER, priority 2021, published 2025)
# Entries after “also recorded” stand apart in the source; their conditions may differ.
# Key:
# CDK4 = biological target: T1, CDK4 (Homo sapiens, UniProt P11802); experiment: Immunoblotting of CDK4 degradation in cells; assay type: cell-based
# T1 construct: CDK4 and CDK6 were immunoprecipitated from isogenic drug sensitive (MCF7 parental cells with low CDK6); endogenous in cells; host or cells: MCF-7 parental and MCF-7 FAT1 CRISPR knockout (CDK6-high) cells
# T1 sequence (P11802 whole entry): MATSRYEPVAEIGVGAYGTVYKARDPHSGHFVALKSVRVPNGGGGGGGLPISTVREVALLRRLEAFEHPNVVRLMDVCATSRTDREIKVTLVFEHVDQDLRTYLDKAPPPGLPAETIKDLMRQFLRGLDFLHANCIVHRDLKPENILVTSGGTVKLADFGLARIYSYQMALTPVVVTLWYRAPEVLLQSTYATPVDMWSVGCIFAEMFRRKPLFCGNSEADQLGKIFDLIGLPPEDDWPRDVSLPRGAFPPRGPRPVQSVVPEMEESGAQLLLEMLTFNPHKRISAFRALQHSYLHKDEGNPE
# T1 sequence (P24385 whole entry partner): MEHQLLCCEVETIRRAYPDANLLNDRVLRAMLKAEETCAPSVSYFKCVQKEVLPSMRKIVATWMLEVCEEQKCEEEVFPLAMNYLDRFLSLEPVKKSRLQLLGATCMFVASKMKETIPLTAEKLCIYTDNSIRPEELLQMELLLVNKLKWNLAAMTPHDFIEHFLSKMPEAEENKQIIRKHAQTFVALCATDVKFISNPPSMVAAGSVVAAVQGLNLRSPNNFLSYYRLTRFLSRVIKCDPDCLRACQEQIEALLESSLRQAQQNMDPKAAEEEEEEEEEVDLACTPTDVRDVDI
# Protocol: (§1) Cell lysates were collected in RIPA buffer (Thermo Fisher Scientific) supplemented with protease and phosphatase inhibitors (Pierce). Protein concentration was quantified by using the BCA kit (Fisher Scientific). […] of protein lysates were loaded onto 4-12% SDS-PAGE gels (Invitrogen) for electrophoresis and transferred onto nitrocellular membranes. Blots were blocked with Intercept™ (TBS) Blocking Buffer (LI-COR Bioscience #927-60001) and incubated with primary antibody at 4° C. overnight. Secondary antibodies conjugated with fluorescence (LI-COR Bioscience #926-68071 and #926-32210) were incubated for 1 h at room temperature and blots were scanned by Odyssey Clx Imaging System from LI-COR Bioscience.
# CDK6 = CDK6 (Homo sapiens, UniProt Q00534); experiment: Immunoblotting of CDK6 degradation in cells; assay type: cell-based; parameters: MCF7 cells that lost FAT1 expression and with high CDK6 expression; endogenous in cells; host or cells: MCF-7 FAT1 loss cells (also MCF-7 parental)
# CDK6, sequence (Q00534 whole entry): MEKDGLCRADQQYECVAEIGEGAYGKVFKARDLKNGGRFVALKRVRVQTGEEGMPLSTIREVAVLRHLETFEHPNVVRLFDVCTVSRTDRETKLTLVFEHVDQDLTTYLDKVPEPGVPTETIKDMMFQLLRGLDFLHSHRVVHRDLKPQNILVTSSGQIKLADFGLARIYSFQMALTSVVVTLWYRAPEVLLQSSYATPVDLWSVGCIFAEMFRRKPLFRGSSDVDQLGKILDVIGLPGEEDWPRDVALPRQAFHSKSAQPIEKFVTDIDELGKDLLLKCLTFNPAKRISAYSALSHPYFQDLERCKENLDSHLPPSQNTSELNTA
# Protocol: as §1
# phosphorylation of Rb = experiment: Immunoblotting of Rb phosphorylation in cells; assay type: cell-based, human; conditions: FAT1 loss / CDK6-high CDK4/6i-resistant MCF7 cells
# Protocol: as §1
# [1] = tested on: CDK6-overexpressing xenografts; experiment: Efficacy study, cell-derived xenograft; assay type: in vivo, NSG mice; conditions: 25-35 days
# Protocol: (§2) Efficacy study. NOD.Cg-Prkdc Il2rg<tm1Wjl>/SzJ (NSG) mice were obtained from the Jackson Laboratory (Stock #: 005557). Each mouse was injected with MCF7 parental, CDK6-ovexpressing or PTEN loss cells subcutaneously 1 week after the implantation of estradiol pellets (25 mg). […] Tumor volumes were recorded every 3-4 days. Mice were sacrificed if tumors reached 1000 mm^3 or at the end of the experiment. Tumors were collected and processed as described above.
# [2] = tested on: MCF7 parental cell-derived xenografts; experiment: Efficacy study, cell-derived xenograft; assay type: in vivo, NSG mice; conditions: ribociclib 25 mg/kg p.o., BSJ-05-017 50 mg/kg i.p., BSJ-03-096 50 mg/kg p.o., 25-35 days
# Protocol: as §2
# [3] = tested on: shPTEN (PTEN loss) xenografts; experiment: Efficacy study, cell-derived xenograft; assay type: in vivo, NSG mice; conditions: 25-35 days
# Protocol: as §2
# [4] = tested on: patient-derived xenograft models; experiment: Patient-derived xenograft tumor growth; assay type: in vivo, mice; conditions: two patient-derived xenograft models; ribociclib at clinical equivalent dose
# [5] = tested on: MCF-7 CDK6-high cells (FAT1 loss); experiment: Cell viability assay (Resazurin); assay type: cell-based, human; conditions: day 7
# Protocol: (§3) Cell viability was measured by Resazurin (R&D Systems, Minneapolis, MN, USA) as described previously (51). Briefly, 1,500 cells were seeded in a 96-well plate and allowed to recover overnight. Cells were treated with drugs at day 0. Resazurin was added to the cells 4 hours prior to the measurements on day 3, day 5 and day 7. Fluorescent intensity was measured using a microplate reader (SpectraMax M5, Molecular Devices, Sunnyvale, CA, USA). IC50 was calculated by GraphPad Prism 7.0 using a sigmoidal regression model.
# MCF-7 parental cells = experiment: Cell viability assay (Resazurin); assay type: cell-based, human; conditions: day 7
# Protocol: as §3
# MOLT4 cells = experiment: Global quantitative mass spectrometry proteomics; assay type: cell-based, human; conditions: 250 nM, 5 h
# Protocol: Molt4 cells were treated with 250 nM of compounds BSJ-05-017 or BSJ-03-096 (singlicate) or DMSO control (biological triplicate) for 5 hours. Cells were harvested by centrifugation and prepared for mass spectrometry as described previously (28). Data were collected as reported (28). LC-MS data were analyzed using Proteome Discoverer 2.4 (Thermo Fisher Scientific), as previously described (28). Reporter ion intensities were normalized and scaled using in-house scripts in the R framework (63). Statistical analysis was carried out using the limma package within the R framework (64).
# Pharmacokinetic study = assay type: in vivo, C57BL/6 male mice
# Protocol: Pharmacokinetic study. C57BL/6 male mice were dosed with BSJ-05-017 solution formulation (i.p., 5/95 DMSO/10% captisol, dose 25 mg/kg) and BSJ-03-096 solution formulation (p.o., 5/95 DMSO/10%, dose 10 mg/kg). Blood samples were collected at 0.08, 0.25, 0.5, 1, 2, 4, 6, 8 and 24 hr. The blood samples were collected from sets of three mice at each time point in microcentrifuge tubes containing K2EDTA as an anticoagulant. Plasma samples were separated by centrifugation and stored below −70° C. until bioanalysis. All samples were processed for analysis by precipitation using acetonitrile and analyzed with a partially validated LC/MS/MS method (LLOQ −1.22 ng/mL for IV and PO, LLOQ −5.02 ng/mL for IP). Pharmacokinetic parameters were calculated using the noncompartmental analysis tool of WinNonlin Enterprise software (Version 6.3).
# [6] = FAT1 loss / CDK6-high CDK4/6i-resistant MCF7 cells, 24 h treatment
# [7] = BSJ-05-017 50 mg/kg i.p., BSJ-03-096 50 mg/kg p.o.
# [8] = MCF7 cells with overexpression of CDK6
SMILES,degradation of CDK4 (CDK4; [6]),degradation of CDK6 (CDK6; [6]),inhibition of phosphorylation of Rb (and downstream E2F1/cyclin A2) (phosphorylation of Rb),other results
"CC(=O)c1c(C)c2cnc(Nc3ccc(N4CCN(CCC5CCCCN5c5ccc6c(c5)C(=O)N(C5CCC(=O)NC5=O)C6=O)CC4)cn3)nc2n(C2CCCC2)c1=O (stereo not drawn) [AM-01-275, 6-(2-(2-(4-(6-((6-acetyl-8-cyclopentyl-5-methyl-7-oxo-7,8-dihydropyrido[2,3-d]pyrimidin-2-yl)amino)pyridin-3-yl)piperazin-1-yl)ethyl)piperidin-1-yl)-2-(2,6-dioxopiperidin-3-yl)-3a,4-dihydro-1H-isoindole-1,3(2H)-dione]",effective in degrading CDK4/6,effective in degrading CDK4/6,inhibiting phosphorylation of Rb,
"CN(C)C(=O)c1cc2cnc(Nc3ccc(N4CCNCC4)cn3)nc2n1C1CCCC1 [ribociclib, reference compound]",,,,tumor response ([1]; ribociclib 25 mg/kg p.o.): tumor outgrowth after initial response; tumor response [2]: sensitive; tumor response ([3]; ribociclib 25 mg/kg p.o.): tumor outgrowth after initial response; inhibition of tumor growth [4]: does not inhibit their growth effectively
"CC(=O)c1c(C)c2cnc(Nc3ccc(N4CCN(CCOCCOCCOCCNC(=O)COc5cccc6c5C(=O)N(C5CCC(=O)NC5=O)C6=O)CC4)cn3)nc2n(C2CCCC2)c1=O (stereo not drawn) [BSJ-03-123, N-(2-(2-(2-(2-(4-(6-((6-acetyl-8-cyclopentyl-5-methyl-7-oxo-7,8-dihydropyrido[2,3-d]pyrimidin-2-yl)amino)pyridin-3-yl)piperazin-1-yl)ethoxy)ethoxy)ethoxy)ethyl)-2-((2-(2,6-dioxopiperidin-3-yl)-1,3-dioxoisoindolin-4-yl)oxy)acetamide, reference compound]",not CDK4; also recorded: no effect on CDK4,dose dependent targeting of CDK6; also recorded: effective CDK6 degradation; also recorded: dose-dependent degradation of CDK6,,inhibition of cell growth [5]: does not effectively inhibit the growth; inhibition of cell growth (MCF-7 parental cells): does not effectively inhibit the growth
"CC(=O)c1c(C)c2cnc(Nc3ccc(N4CCN(CCC5CCN(c6ccc7c(c6)C(=O)N(C6CCC(=O)NC6=O)C7=O)CC5)CC4)cn3)nc2n(C2CCCC2)c1=O (stereo not drawn) [AM-01-269, 5-(4-(2-(4-(6-((6-acetyl-8-cyclopentyl-5-methyl-7-oxo-7,8-dihydropyrido[2,3-d]pyrimidin-2-yl)amino)pyridin-3-yl)piperazin-1-yl)ethyl)piperidin-1-yl)-2-(2,6-dioxopiperidin-3-yl)isoindoline-1,3-dione]",effective in degrading CDK4/6,effective in degrading CDK4/6,inhibiting phosphorylation of Rb,
"CC(=O)c1c(C)c2cnc(Nc3ccc(N4CCN(CC5CCN(c6ccc7c(c6)C(=O)N(C6CCC(=O)NC6=O)C7=O)CC5)CC4)cn3)nc2n(C2CCCC2)c1=O (stereo not drawn) [BSJ-03-096, 5-(4-((4-(6-((6-acetyl-8-cyclopentyl-5-methyl-7-oxo-7,8-dihydropyrido[2,3-d]pyrimidin-2-yl)amino)pyridin-3-yl)piperazin-1-yl)methyl)piperidin-1-yl)-2-(2,6-dioxopiperidin-3-yl)isoindoline-1,3-dione]",most significant degradation of both CDK4 and CDK6; also recorded: effective in degrading both CDK4 and CDK6; also recorded: high potency in degrading CDK4 and CDK6,most significant degradation of both CDK4 and CDK6; also recorded: effective in degrading both CDK4 and CDK6; also recorded: high potency in degrading CDK4 and CDK6,efficiently inhibit the phosphorylation of Rb protein; also recorded: effective inhibition of the phosphorylation of Rb,"durable tumor inhibition (percent) [1, 7]: −68.9%; tumor response [2]: sensitive; durable tumor inhibition (percent) [3, 7]: −54.9%; selectivity in global proteomics (MOLT4 cells): highly selective for CDK4 and CDK6; inhibition of tumor growth [4]: effective in inhibiting tumor growth; degradation of CDK4 (CDK4; [8]): effectively degrade CDK4 and CDK6; degradation of CDK6 (CDK6; [8]): effectively degrade CDK4 and CDK6; Cmax (Pharmacokinetic study; male, C57BL/6, mouse, plasma, po, single dose 10 mg/kg p.o.): 900 nM; concentration at 24 h (Pharmacokinetic study; male, C57BL/6, mouse, plasma, po, single dose 10 mg/kg p.o., read-out: plasma concentration at 24h post dosing): ~100 nM; metabolic stability (Pharmacokinetic study; single dose in mice, i.p. or p.o.): good metabolic stability"
"CC(=O)c1c(C)c2cnc(Nc3ccc(N4CCN(CCC5CC(CNc6cccc7c6C(=O)N(C6CCC(=O)NC6=O)C7=O)C5)CC4)cn3)nc2n(C2CCCC2)c1=O (stereo not drawn) [AM-01-125, 4-(((3-(2-(4-(6-((6-acetyl-8-cyclopentyl-5-methyl-7-oxo-7,8-dihydropyrido[2,3-d]pyrimidin-2-yl)amino)pyridin-3-yl)piperazin-1-yl)ethyl)cyclobutyl)methyl)amino)-2-(2,6-dioxopiperidin-3-yl)isoindoline-1,3-dione]",effectively degrade CDK4/CDK6,effectively degrade CDK4/CDK6,inhibit phosphorylation of Rb,

# Second part, led by results:
degradation of CDK4 (CDK4; [6]),degradation of CDK6 (CDK6; [6]),SMILES,inhibition of phosphorylation of Rb (and downstream E2F1/cyclin A2) (phosphorylation of Rb),other results
effectively degrade CDK4/CDK6,effectively degrade CDK4/CDK6,"CC(=O)c1c(C)c2cnc(Nc3ccc(N4CCN(CCC5CCN(c6cccc7c6C(=O)N(C6CCC(=O)NC6=O)C7=O)CC5)CC4)cn3)nc2n(C2CCCC2)c1=O (stereo not drawn) [MS-01-303, 4-(4-(2-(4-(6-((6-acetyl-8-cyclopentyl-5-methyl-7-oxo-7,8-dihydropyrido[2,3-d]pyrimidin-2-yl)amino)pyridin-3-yl)piperazin-1-yl)ethyl)piperidin-1-yl)-2-(2,6-dioxopiperidin-3-yl)isoindoline-1,3-dione]",inhibit phosphorylation of Rb,
effective in degrading CDK4/6,effective in degrading CDK4/6,CC(=O)c1c(C)c2cnc(Nc3ccc(N4CCN(CCCC5CCN(c6cccc7c6C(=O)N(C6CCC(=O)NC6=O)C7=O)CC5)CC4)cn3)nc2n(C2CCCC2)c1=O (stereo not drawn) [MS-02-24],inhibiting phosphorylation of Rb,
